From US9987294B2, “Mitochondria-targeted anti-tumor agents” (University of Massachusetts, priority 2007, dated 2018)
Entries after “also recorded” stand apart in the source; their conditions may differ. Structures can show the parent of a compound that is named as a salt. Where no end group is shown, it is not given here. [ ]: non-standard residue; d: D form.

Assays:
[1] = test system: normal human fibroblast cell types (WS-1, HGF, HFF); assay: Cell viability by MTT, normal human fibroblast cell types; details: concentrations comparable to those killing tumor cells
Method: Changes in protein expression in the various experiments of siRNA targeting were assessed by Western blotting. For analysis of TRAP-1-directed cytoprotection, primary nontransformed human fibroblasts HFF and WS-1 were transfected with control pcDNA3 or TRAP-1 cDNA by lipofectamine for 24 hours, exposed to increasing concentrations (0-1 μM) of the cell death stimulus staurosporine (STS), and analyzed for cell viability after additional 24 hours incubation by MTT. For analysis of apoptosis, p53+/+ or p53−/−HCT116 cells were treated with control or ANT-GA (100 μM), and analyzed for DEVDase activity (CaspaTag) and propidium iodide staining by simultaneous multiparametric flow cytometry, as described (Dohi et al., J. Clin. Invest. 114(8):1117-27, (2004); Plescia et al., Cancer Cell, 7:457-468, (2005)).

tumor mitochondria = assay: Cytochrome c release from drug-treated isolated tumor mitochondria; assay type: biochemical; details: 3 hours (FIG. 16D)
Method: Tumor cell types were treated with controls or the various Hsp90 antagonists, and cytosolic extracts were harvested at increasing time intervals between 5-30 minutes and analyzed by Western blotting. For experiments in a cell-free system, purified mitochondria (20 μg) were suspended in 500 μl of SB buffer (0.2 M sucrose, 10 mM Tris-MOPS, pH 7.4, 5 mM succinate, 1 mM sodium phosphate, 10 μM EGTA-Tris, and 2 μM rotenone). […] At the end of each incubation reaction, mitochondria and supernatants were separated by centrifugation at 6,000×g for 10 minutes, and analyzed by Western blotting.
(§1) The fluorescence intensity after treatment with 2 mM CaCl2 corresponded to a fully depolarized state. Alternatively, H460 cells were labeled with the fluorescent dye JC-1 (Molecular Probes), and analyzed for changes in red/green (F1-2/F1-1) fluorescence ratio after treatment with the various agents, by multiparametric flow cytometry. Cytochrome c content in pellets or supernatants of drug-treated isolated mitochondria was determined by Western blotting.

[2] = test system: isolated tumor mitochondria; assay: Inner membrane potential of TMRM-loaded tumor mitochondria; assay type: biochemical
Method: as §1

[3] = test system: lung adenocarcinoma H460 cells; assay: Cell viability by MTT, H460; assay type: cell-based, human; details: 3 hour exposure
Method: (§2) Modulation of cell viability was determined by MTT (Kang et al., “Regulation of tumor cell mitochondrial homeostasis by an organelle-specific Hsp90 chaperone network,” Cell, 131:257-270 (2007)). For determination of apoptosis, cells were analyzed for caspase activity (DEVDase activity) and plasma membrane integrity (propidium iodide) using CaspaTag (Intergen, Burlington, Mass.), by multiparametric flow cytometry (Kang et al., “Regulation of tumor cell mitochondrial homeostasis by an organelle-specific Hsp90 chaperone network,” Cell, 131:257-270 (2007)).

[4] = test system: H460 lung adenocarcinoma xenograft tumors; assay: Xenograft tumor growth, H460; assay type: in vivo, mice; details: i.p.; G4 and 17-AAG 2-3 mg/kg twice daily, G1 30-50 mg/Kg daily, TPP 10 mg/Kg daily
Method: To create the models used in this example, HL60 (10×10^6) or H460 (4×10^6) cells suspended in sterile PBS (200 μl) were injected subcutaneously into both flanks of 10 week-old CB17 SCID/beige (Taconic Farms) immunocompromised female mice. Alternatively, MDA-MB-231 cells (5×10^6) suspended in 200 μl of 50% Matrigel (BD Biosciences) were used for subcutaneous injection in CB17 SCID/beige mice. When superficial tumors reached volumes of 100-150 mm^3, animals were randomized in two groups (2 tumors/mouse, 3 animals/group), and treated with vehicle (DMSO) or Gamitrinib dissolved in 20% Cremophor EL (Sigma) in PBS by intraperitoneal (i.p.) injection. Gamitrinib-G4 was used as sterile i.p. injections with the following schedules: HL60 xenografts, 2 mg/Kg twice daily; H460 xenografts, 2 mg/kg twice daily for d 0, 2.5 mg/kg twice daily for d 1, 3.0 mg/kg twice daily for the duration of treatment; MDA-MB-231 xenografts, 2 mg/Kg twice daily for d 0-2, 2.5 mg/Kg twice daily for d 3-5, and 3 mg/Kg twice daily throughout the rest of the treatment. 17-AAG was dissolved in 20% Cremophor EL and used as systemic i.p. injections with the same dose-escalating regimen as Gamitrinib-G4 in H460 xenograft studies. Gamitrinib-G1 was used with following schedules: 30 mg/Kg daily (d 0-2), and 50 mg/Kg daily for the rest of treatment. Gamitrinib-TPP was used as i.p. injections at 10 mg/Kg daily throughout the duration of the experiment. Tumor measurements were taken daily with a caliper, and tumor volume was calculated with the formula ([length in millimeters]×[width in millimeters]^2)/2. Mice in the various treatment groups were weighed at the beginning and at the end of each experiment.

[5] = test system: breast adenocarcinoma SKBr3 cells; assay: Metabolic activity by MTT, SKBr3; assay type: cell-based; details: 10 μM; by 48 hours and throughout a 96-hours interval
Method: as §2

TRAP-1 and Hsp90 = assay: Fractionation of Raji mitochondrial extracts over Shepherdin-Sepharose or scrambled peptidomimetic-Sepharose; assay type: binding, human; details: coupled to Sepharose beads, Western blotting
[6] = test system: Ras-transformed NIH3T3 mitochondria; assay: Mitochondrial membrane potential of TMRM-loaded isolated mitochondria; assay type: biochemical
Method: Raji cells were treated with Shepherdin or control scrambled peptidomimetic (100 μM) or 17-AAG (5 μM), loaded with the mitochondrial membrane potential-sensitive fluorescent dye JC-1, and analyzed for changes in green/red fluorescence ratio by flow cytometry. For experiments in a cell-free system, purified mitochondria isolated from primary normal cells, various tumor cells types, or normal mouse organs were suspended in SB buffer. […] For these experiments, TMRM-loaded mitochondria in SB buffer were allowed to reach stable fluorescence, which was set as fully polarized state (maximum membrane potential). The fluorescence intensity after treatment with 2 mM CaCl2 was set as minimum membrane potential (fully depolarized state). Changes in fluorescence intensity after each treatment were plotted as a ratio between maximum and minimum membrane potential.

CC[C@H](C)[C@H](NC(=O)[C@H](CCCCN)NC(=O)[C@@H](NC(=O)[C@H](CCC(N)=O)NC(=O)[C@@H](N)CCCNC(=N)N)[C@@H](C)CC)C(=O)N[C@@H](Cc1c[nH]c2ccccc12)C(=O)N[C@@H](Cc1ccccc1)C(=O)N[C@@H](CCC(N)=O)C(=O)N[C@@H](CC(N)=O)C(=O)N[C@@H](CCCNC(=N)N)C(=O)N[C@@H](CCCNC(=N)N)C(=O)N[C@@H](CCSC)C(=O)N[C@@H](CCCCN)C(=O)N[C@@H](Cc1c[nH]c2ccccc12)C(=O)N[C@@H](CCCCN)C(=O)N[C@@H](CCCCN)C(=O)N[C@@H](CSC1CC(=O)N(CCCC(=O)NCCCNC2=C3C[C@@H](C)C[C@H](OC)[C@H](O)[C@@H](C)/C=C(\C)[C@H](OC(N)=O)[C@@H](OC)/C=C\C=C(/C)C(=O)NC(=CC2=O)C3=O)C1=O)C(N)=O (some centres unmarked) [ANT-GA]
viability of normal human fibroblast cell types [1]: none of the compounds affected the viability of various normal human fibroblast cell types

COc1c(C)cnc(Cn2cnc3c(Cl)nc(N)nc32)c1C [BIIB021]
cytochrome c release from mitochondria (tumor mitochondria): had no effect on cytochrome c release

CO[C@H]1/C=C\C=C(/C)C(=O)NC2=CC(=O)C(NCCN(C)C)=C(C[C@@H](C)C[C@H](OC)[C@H](O)[C@@H](C)/C=C(\C)[C@@H]1OC(N)=O)C2=O [DMAG, 17-(dimethylaminoethylamino)-17-demethoxygeldanamycin]
mitochondrial inner membrane potential [2]: did not affect mitochondrial membrane potential

COC1=C2C[C@@H](C)C[C@H](OC)[C@H](O)[C@@H](C)/C=C(\C)[C@H](OC(N)=O)[C@@H](OC)/C=C\C=C(/C)C(=O)NC(=CC1=O)C2=O [GA, geldanamycin]
viability of normal human fibroblast cell types [1]: none of the compounds affected the viability of various normal human fibroblast cell types

CO[C@H]1/C=C\C=C(/C)C(=O)NC2=CC(=O)C(NCCCNC(=O)CCCN3C(=O)CC(SC[C@H]4CCN5CC[C@H](CO[Si](c6ccccc6)(c6ccccc6)C(C)(C)C)N=C5N4)C3=O)=C(C[C@@H](C)C[C@H](OC)[C@H](O)[C@@H](C)/C=C(\C)[C@@H]1OC(N)=O)C2=O (stereo partly drawn) [Gamitrinib-G1, (4E,6Z,8S,9S,10E,12S,13R,14S,16R)-19-(3-(4-(3-(((2R,8R)-8-((tert-butyldiphenylsilyloxy)methyl)-2,3,4,6,7,8-hexahydro-1H-pyrimido[1,2-a]pyrimidin-2-yl)methylthio)-2,5-dioxopyrrolidin-1-yl)butanamido)propylamino)-13-hydroxy-8,14-dimethoxy-4,10,12,16-tetramethyl-3,20,22-trioxo-2-azabicyclo[16.3.1]docosa-1(21),4,6,10,18-pentaen-9-yl carbamate, hexafluorophosphate salt]
cell viability [3]: had no effect
tumor growth [4]: also inhibited lung cancer growth in vivo

CO[C@H]1/C=C\C=C(/C)C(=O)NC2=CC(=O)C(NCCCNC(=O)CCCN3C(=O)CC(SC[C@H]4CCN5CC[C@H](CSC[C@H]6CCN7CC[C@H](CO[Si](c8ccccc8)(c8ccccc8)C(C)(C)C)N=C7N6)N=C5N4)C3=O)=C(C[C@@H](C)C[C@H](OC)[C@H](O)[C@@H](C)/C=C(\C)[C@@H]1OC(N)=O)C2=O (some centres unmarked) [Gamitrinib-G2]
cell viability [3]: had intermediate activity

CO[C@H]1/C=C\C=C(/C)C(=O)NC2=CC(=O)C(NCCCNC(=O)CCCN3C(=O)CC(SC[C@H]4CCN5CC[C@H](CSC[C@H]6CCN7CC[C@H](CSC[C@H]8CCN9CC[C@H](CO[Si](c%10ccccc%10)(c%10ccccc%10)C(C)(C)C)N=C9N8)N=C7N6)N=C5N4)C3=O)=C(C[C@@H](C)C[C@H](OC)[C@H](O)[C@@H](C)/C=C(\C)[C@@H]1OC(N)=O)C2=O.F[P-](F)(F)(F)(F)F.F[P-](F)(F)(F)(F)F.F[P-](F)(F)(F)(F)F (some centres unmarked) [Gamitrinib-G3]
cell viability [3]: complete loss of cell viability
IC50 ([3]; read-out: IC50, loss of cell viability): ~0.5 µM

CO[C@H]1/C=C\C=C(/C)C(=O)NC2=CC(=O)C(NCCCCCC[P+](c3ccccc3)(c3ccccc3)c3ccccc3)=C(C[C@@H](C)C[C@H](OC)[C@H](O)[C@@H](C)/C=C(\C)[C@@H]1OC(N)=O)C2=O [Gamitrinib-TPP, (4E,6Z,8S,9S,10E,12S,13R,14S,16R)-19-(6-(triphenylphosphonio)hexylamino)-13-hydroxy-8,14-dimethoxy-4,10,12,16-tetramethyl-3,20,22-trioxo-2-azabicyclo[16.3.1]docosa-1(21),4,6,10,18-pentaen-9-yl carbamate hexafluorophosphate]
mitochondrial inner membrane potential [2]: promptly depolarized tumor mitochondria
cell viability [3]: had intermediate activity
tumor growth [4]: also inhibited lung cancer growth in vivo
metabolic activity [5]: comparably reduced metabolic activity

C=CCNc1c(O)cc2c(O)c1C[C@@H](C)C[C@H](OC)[C@H](O)[C@@H](C)/C=C(\C)[C@H](OC(N)=O)[C@@H](OC)/C=C\C=C(/C)C(=O)N2 [IPI-504]
cytochrome c release from mitochondria (tumor mitochondria): had no effect on cytochrome c release

CCNC(=O)c1noc(-c2cc(C(C)C)c(O)cc2O)c1-c1ccc(CN2CCOCC2)cc1 [NVP-AUY922]
cytochrome c release from mitochondria (tumor mitochondria): had no effect on cytochrome c release

Sheph: Shepherdin lacking the Antennapedia cell-penetrating sequence ([dL][dF][dA][dC]G[dS][dS][dH][dK])
association of Hsp90 and TRAP-1 with immobilized peptidomimetic (TRAP-1 and Hsp90): specific elution of both TRAP-1 and Hsp90; also recorded: Hsp90 and TRAP-1 are bound by Shepherdin-Sepharose
membrane potential of mitochondria [6]: induces loss of mitochondrial membrane potential in transformed cells
